{"source": "patent US20070105215A1", "about": "“METHOD OF CULTURING STEM CELLS USING ABC TRANSPORTERS” (SAMSUNG ELECTRONICS CO., LTD., priority 2005, published 2007)", "key": {"[1]": {"test_system": "K562 (chronic myelogenous leukemia) cells having no ABC transporter", "assay": "Cell activity/viability of K562 cells treated with Mitoxantrone (Sulforhodamine B kit), single culture", "format": "cell-based", "method": "(§1) This was performed in the same manner as in Example 1, except that K562 (chronic myelogenous leukemia) cells having no ABC transporter were incubated in place of the A549 cells.\n(§2) This was performed in the same manner as in Example 1, except that K562 cells having no ABC transporter were used in place of the A549 cells."}, "[2]": {"assay": "Cell activity/viability of K562 cells treated with Mitoxantrone (Sulforhodamine B kit), single culture", "format": "cell-based", "conditions": "human, K562 cells (no ABC transporter); K562 single culture, Mitoxantrone 0.4 M, incubated for 96 hours", "method": "as §1, §2"}, "[3]": {"assay": "Coculture of A549 and K562 cells treated with Mitoxantrone, viability of K562 cells", "format": "cell-based", "conditions": "human, K562 cells cocultured with A549 cells, K562 coculture with A549, Mitoxantrone 0.4 M"}, "[4]": {"test_system": "A549 (human lug carcinoma cell ATCC no.CCL-185), having ABC transporters of the ABCG2 family"}, "[5]": {"assay": "Coculture of A549 and K562 cells treated with Mitoxantrone, viability of A549 cells", "format": "cell-based", "conditions": "human, A549 cells cocultured with K562 cells, A549 co-cultured with K562, Mitoxantrone 0.4 M"}}, "note": "Like-named read-outs stand apart in the source and are kept apart here."}
{"molecule": "O=C1c2c(O)ccc(O)c2C(=O)c2c(NCCNCCO)ccc(NCCNCCO)c21", "note": "[Mitoxantrone]", "values": [{"measurement": "cell activity", "setting": "[1]; K562, Mitoxantrone concentration of 0.1M (FIG. 6)", "result": "about 60%"}, {"measurement": "cell activity", "setting": "[1]; K562, Mitoxantrone concentration of 0.2M (FIG. 6)", "result": "almost zero"}, {"measurement": "viability at 96 h, 0.4 M", "setting": "[2]", "result": 28, "unit": "%"}, {"measurement": "viability at 96 h, 0.4 M", "setting": "[3]", "result": 17, "unit": "%"}, {"measurement": "cell activity", "setting": "[4]; A549, Mitoxantrone concentration of 0.4M (FIG. 6)", "result": 98, "unit": "%"}, {"measurement": "cell activity", "setting": "[4]; A549, Mitoxantrone concentration of 1.0M (FIG. 6)", "result": 86, "unit": "%"}, {"measurement": "cell activity", "setting": "[4]; A549, Mitoxantrone concentration of 2.6 (FIG. 6)", "result": 68, "unit": "%"}, {"measurement": "viability at 96 h, 0.4 M", "setting": "[5]", "result": 92, "unit": "%"}]}
